Experimental data reported in patent US10428026B2, “Pyridinone dicarboxamide for use as bromodomain inhibitors” (GlaxoSmithKline Intellectual Property (No.2) Limited, priority 2015, dated 2019).
Read-outs that look alike come from different tables or passages of the source.

Legend:
[1] = molecular target: T1, BRD4 BD1 (Homo sapiens, UniProt O60885, Y390A); assay: BRD4 BD1 TR-FRET competition assay; type: binding; conditions: mean of n determinations; read-out: mean pIC50 in the BRD4 BD1 TR-FRET assay (converted)
T1 construct: BRD4 (1-477) (Y97A) and (Y390A); made in house; host or cells: E. coli (pET15b vector)

[2] = molecular target: T2, BRD4 BD2 (Homo sapiens, UniProt O60885, Y97A); assay: BRD4 BD2 TR-FRET competition assay; type: binding; conditions: for fold selective for BRD4 BD2 over BRD4 BD1: derived from the log unit selectivity; for selectivity for BRD4 BD2 over BRD4 BD1 (BRD4 BD2 pIC50 - BRD4 BD1 pIC50): in at least one of the TR-FRET assays
T2 construct: BRD4 (1-477) (Y97A) and (Y390A); made in house; host or cells: E. coli (pET15b vector)

[3] = system: BET family (BRD2, BRD3, BRD4 and BRDT) mutant tandem bromodomain proteins; assay: Fluorescence Polarisation binding of Reference Compound X to single and double mutant tandem BET proteins; parameters: species or system Human
Procedure: The competition of the compounds of formula (I) with Reference Compound X for binding to the BET family (BRD2, BRD3, BRD4 and BRDT) was assessed using protein truncates spanning both bromodomain 1 (BD1) and bromodomain 2 (BD2). In order to monitor differential binding to either BD1 or BD2, single residue mutations of key tyrosines to alanine were made in the acetyl lysine binding pockets. To validate this approach, a double residue mutant tandem domain protein was produced for each of the BET family members. Utilising a Fluorescence Polarisation approach, binding affinities for each of the single and double mutants for Reference Compound X were determined. […] The affinities of the single mutated bromdomain tandem proteins for Reference Compound X were equi-potent with the corresponding non-mutated BET protein. […] In the TR-FRET competition assay, Reference Compound X is used at a concentration that is equivalent to the Kd for the non-mutated bromodomain, which ensures that no binding at the mutated bromodomain is detected. […]

[4] = mean of n determinations, read-out: mean pIC50 in the BRD4 BD2 TR-FRET assay (converted)

CNC(=O)c1cc(C(=O)N[C@H]2C[C@@H]2C)cn(Cc2ccccc2)c1=O (single isomer, unassigned) [Example 102]
IC50 [1]: 7.94 µM | fold selective for BRD4 BD2 over BRD4 BD1 [2]: at least 100 fold | selectivity for BRD4 BD2 over BRD4 BD1 (BRD4 BD2 pIC50 - BRD4 BD1 pIC50) [2]: 2.5 log unit | IC50 [2, 4]: 0.0251 µM

CNC(=O)c1cc(C(=O)N[C@H]2C[C@@H]2C)cn(Cc2cccc(OCCO)c2)c1=O [Example 153, 1-(3-(2-Hydroxyethoxy)benzyl)-N3-methyl-N5-((1S,2S)-2-methylcyclopropyl)-2-oxo-1,2-dihydropyridine-3,5-dicarboxamide]
IC50 [1]: 31.6 µM | fold selective for BRD4 BD2 over BRD4 BD1 [2]: at least 100 fold | selectivity for BRD4 BD2 over BRD4 BD1 (BRD4 BD2 pIC50 - BRD4 BD1 pIC50) [2]: 2.7 log unit | IC50 [2, 4]: 0.0631 µM

CNC(=O)c1cc(C(=O)N[C@H]2C[C@@H]2C)cn(Cc2ccc(C(=O)O)cc2)c1=O [Example 339, 4-((3-(Methylcarbamoyl)-5-(((1S,2S)-2-methylcyclopropyl)carbamoyl)-2-oxopyridin-1(2H)-yl)methyl)benzoic acid]
IC50 ([2]; BRD4 BD2 TR-FRET, read-out: pIC50 in the BRD4 BD2 assay (converted)): 1 to 100 µM

COc1ccc2c(c1)C(c1ccc(Cl)cc1)=N[C@@H](CC(=O)NCCCCCNC(=O)CCCCCC1(C)/C(=C/C=C/C=C/C3=[N+](CCCCS(=O)(=O)O)c4ccc(S(=O)(=O)O)cc4C3(C)C)N(CCCCS(=O)(=O)[O-])c3ccc(S(=O)(=O)O)cc31)c1nnc(C)n1-2 (some centres unmarked) [Reference Compound X]
fold reduction in Kd (affinity) of double mutant tandem proteins for Reference Compound X ([3]; double residue mutant versus non mutated, wild type tandem BET proteins): > 1000 fold | fold change of Kd of the interaction between the mutated bromodomain and Reference Compound X ([3]; single mutations of Tyrosine to Alanine): > 1000 fold
